# Source: US10688075B2 (Morgandane Scientific, LLC, priority 2018, dated 2020)
# Values joined by “and” are separate entries in the source; they are usually repeats but may differ in a detail not shown here. Equal values may be shown once. Read-outs that look alike come from different tables or passages of the source.
# What was measured:
# [1] = cited from earlier work
# [2] = Plasma rivaroxaban pharmacokinetics: single 20 mg rivaroxaban alone (Period I) or with 360 mg verapamil at steady state (Period III), subjects with mild renal impairment or normal renal function
# Experimental: These patients are subjected to various one-time and longitudinal pharmacokinetic (PK) and pharmacodynamic (PD) analyses. […] Cmax and AUC values for each dose are calculated. Patients also undergo a general physical exam to determine overall health and well-being.
# All the pharmacokinetic and pharmacodynamics analyses are repeated on patients receiving this treatment.
# Subjects with either mild renal impairment or with normal renal function were enrolled.
# Renal function of the subjects was determined by measuring creatinine clearance (CLcr) rates. Subjects who had CLcr≥90 mL/min were categorized as having normal renal function whereas subjects who had CLcr 50-79 mL/min were categorized as mildly renally impaired. Blood samples were collected and processed according to the standard protocols.
# Prothrombin Time = assay: Prothrombin time (STA Neoplastin method) after rivaroxaban with or without verapamil; format: in vivo, human
# From the text: As used herein, the term “prothrombin time” (PT) refers to a blood test that measures how long it takes blood to clot. In some embodiments, a prothrombin time test can be used to measure of a patient's haemostasis. In some embodiments, PT can be used to measure the effectiveness or exposure to a blood clotting drug. Persons having skill in the art sometimes interchangeably refer to a PT test as an INR. […] Additionally, PT measurements are subject to variability based on the test reagent and laboratory test ranges determined by each institution.
# Additional pharmacodynamic metrics are also gathered for each patient, including, but not limited to: prothrombin time (using the STA® Neoplastin® method) and Factor Xa activity. […] Renal Function and non-vitamin K oral anticoagulants in comparison with warfarin on safety and efficacy outcomes in atrial fibrillation patients: a systemic review and meta-regression analysis.
# Blood samples were collected and processed according to the standard protocols.
# [3] = Risk of major bleeding from steady state rivaroxaban AUC (FIG. 5); format: in vivo, human
# Experimental: See Center for Drug Evaluation and Research, Application No. 022406Orig1s000, Clinical Pharmacology and Biopharmaceutics Review(s), at page 36, which is hereby incorporated by reference in its entirety.
# Group “c” represents the average of the three subjects in Group “b” who had the highest AUCinf, which was about 8,143 μg·hr/L. The risk of major bleeding of the subjects in Group “c” were at least 5 times higher compared to the populations in Group “a” and not even visible on this scale.
# [4] = Reported rivaroxaban serious bleeding adverse events by concomitant drug; format: in vivo, human
# From the text: 8, 2015, American Heart Association, Scientific Sessions 2015, and published at http://www.abstractsonline.com/pp8/#!/3795/presentation/37668).
# Factor Xa = target: T1, Factor Xa (Homo sapiens, UniProt P00742); assay: Factor Xa activity after rivaroxaban with or without verapamil; format: in vivo
# T1 construct: host or cells: human subjects
# T1 sequence (P00742 235-488 limits assumed): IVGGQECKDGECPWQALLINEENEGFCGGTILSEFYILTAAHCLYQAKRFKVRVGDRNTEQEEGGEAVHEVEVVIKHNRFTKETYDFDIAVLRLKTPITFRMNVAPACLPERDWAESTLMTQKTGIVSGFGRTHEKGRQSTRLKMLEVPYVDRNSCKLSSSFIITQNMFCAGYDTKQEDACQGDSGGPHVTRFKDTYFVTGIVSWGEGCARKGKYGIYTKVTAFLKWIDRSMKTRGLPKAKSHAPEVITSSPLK
# T1 sequence (P00742 41-179 partner limits assumed): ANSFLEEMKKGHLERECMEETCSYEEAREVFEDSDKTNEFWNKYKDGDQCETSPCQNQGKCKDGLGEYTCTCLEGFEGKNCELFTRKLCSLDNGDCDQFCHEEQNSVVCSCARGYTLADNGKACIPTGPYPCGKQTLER
# From the text: Additional pharmacodynamic metrics are also gathered for each patient, including, but not limited to: prothrombin time (using the STA® Neoplastin® method) and Factor Xa activity. Protocols for each of these analyses have been described in Nielsen et al 2015. Renal Function and non-vitamin K oral anticoagulants in comparison with warfarin on safety and efficacy outcomes in atrial fibrillation patients: a systemic review and meta-regression analysis.
# [5] = Drug-drug interaction study of oral verapamil and 0.5-2.5 mg rivaroxaban (Example 4); format: in vivo, human; details: 0.5-2.5 mg rivaroxaban with verapamil (100-480 mg)
# Experimental: A control study is performed to determine the presence of DDIs in patients treated with oral verapamil and rivaroxaban (without aspirin). […]. A representative example of a sample study is found in Example 1.
# [6] = Drug-drug interaction study of oral verapamil, aspirin and rivaroxaban (Example 5); format: in vivo, human; details: for Risk of major bleeding: e.g.
# Experimental: Additional studies are performed to determine the presence of DDIs in patients treated with oral verapamil, aspirin, and rivaroxaban. […] A representative example of such a study is found in Example 1. […] Additionally, these studies show a linear relationship between the pharmacokinetic and the pharmacodynamics of rivaroxaban in subjects with normal renal function and renal insufficiency.
# [7] = cited from earlier work; remark: listed apart in the source
# [8] = in vivo; cited from earlier work
# [9] = cited from earlier work; remark: listed apart in the source
# P-gp = P-gp (Homo sapiens, UniProt P08183); details: in vitro; cited from earlier work
# Sequence of P-gp (P08183 whole entry): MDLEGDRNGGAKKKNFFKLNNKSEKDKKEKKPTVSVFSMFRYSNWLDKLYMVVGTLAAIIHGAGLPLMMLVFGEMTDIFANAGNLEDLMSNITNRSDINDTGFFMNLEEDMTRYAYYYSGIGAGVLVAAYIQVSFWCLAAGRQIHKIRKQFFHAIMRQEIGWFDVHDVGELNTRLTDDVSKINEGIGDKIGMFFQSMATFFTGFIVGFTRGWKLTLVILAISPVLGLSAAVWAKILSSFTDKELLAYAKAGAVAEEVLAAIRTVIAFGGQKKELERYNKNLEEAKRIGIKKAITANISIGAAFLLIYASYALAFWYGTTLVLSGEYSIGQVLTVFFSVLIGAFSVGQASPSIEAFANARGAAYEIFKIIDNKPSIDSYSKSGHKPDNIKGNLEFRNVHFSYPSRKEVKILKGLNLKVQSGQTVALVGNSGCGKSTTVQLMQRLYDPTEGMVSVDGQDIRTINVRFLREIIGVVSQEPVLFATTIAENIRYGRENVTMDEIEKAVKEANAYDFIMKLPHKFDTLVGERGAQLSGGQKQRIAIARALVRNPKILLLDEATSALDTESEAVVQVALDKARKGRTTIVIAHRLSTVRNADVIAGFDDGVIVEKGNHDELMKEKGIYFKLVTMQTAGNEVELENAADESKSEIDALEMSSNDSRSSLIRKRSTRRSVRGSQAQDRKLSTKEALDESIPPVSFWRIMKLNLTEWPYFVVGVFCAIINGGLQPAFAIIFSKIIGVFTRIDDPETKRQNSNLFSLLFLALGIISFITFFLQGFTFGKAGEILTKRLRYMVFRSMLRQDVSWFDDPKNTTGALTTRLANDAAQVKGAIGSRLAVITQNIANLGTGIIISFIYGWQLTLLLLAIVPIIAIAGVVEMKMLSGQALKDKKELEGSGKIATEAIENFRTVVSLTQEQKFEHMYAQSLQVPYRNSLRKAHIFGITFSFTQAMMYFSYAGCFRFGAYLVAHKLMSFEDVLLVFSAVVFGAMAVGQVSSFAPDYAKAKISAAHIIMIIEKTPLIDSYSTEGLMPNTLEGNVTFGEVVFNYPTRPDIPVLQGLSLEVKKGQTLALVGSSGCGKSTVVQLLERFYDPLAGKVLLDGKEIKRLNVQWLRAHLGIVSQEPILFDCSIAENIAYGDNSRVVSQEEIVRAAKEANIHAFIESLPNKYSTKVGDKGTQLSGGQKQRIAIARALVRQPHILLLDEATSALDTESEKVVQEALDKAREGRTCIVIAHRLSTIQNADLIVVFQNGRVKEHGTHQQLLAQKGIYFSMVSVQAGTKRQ
# [10] = Example 1: 20 mg rivaroxaban + 360 mg verapamil vs rivaroxaban alone
# [11] = Example 4: 0.5-2.5 mg rivaroxaban with verapamil (100-480 mg)
smiles,measurement,setting,value
O=C(NC[C@H]1CN(c2ccc(N3CCOCC3=O)cc2)C(=O)O1)c1ccc(Cl)s1 [Rivaroxaban],Risk of major bleeding events compared to aspirin alone,[1]; 2.5 mg rivaroxaban (BID) and aspirin,increase the risk of major bleeding events
same,Risk of major bleeding events compared to aspirin alone,[1]; 5 mg dose of rivaroxaban alone,increase the risk of major bleeding events
same,"Clinical outcomes (stroke, myocardial infarction, cardiovascular death) compared to aspirin alone and rivaroxaban 5 mg BID alone","[1]; rivaroxaban 2.5 mg BID and aspirin, patients with cardiovascular disease",reduce several clinical outcomes
same,CL/F/kg,"[2]; Period I, rivaroxaban alone, Group 2 normal renal function (N = 13), outlier sample excluded, arithmetic mean",0.108 (L/hr)/kg
same,CL/F/kg,"[2]; Period III, rivaroxaban and verapamil, Group 2 normal renal function (N = 10), individual subjects",0.0664 (L/hr)/kg and 0.0705 (L/hr)/kg and 0.0839 (L/hr)/kg
same,CL/F/kg,"[2]; Period III, rivaroxaban and verapamil, Group 2 normal renal function (N = 10), median",0.0664 (L/hr)/kg
same,t1/2,"[2]; human, in vivo, 20 mg",9.44 h
same,PT on concomitant verapamil,Prothrombin Time; [10],prolonged PT
same,PT on concomitant verapamil,Prothrombin Time; [11],prolonged PT
same,Relationship between plasma concentrations of rivaroxaban and PT (pharmacokinetics vs pharmacodynamics),"Prothrombin Time; subjects with normal renal function and mild renal insufficiency, Day 1 and Day 15, FIGS. 1 and 2",clear linear relationship
same,"Risk of major bleeding, Group a","[3]; fed subjects, single 20 mg rivaroxaban, AUC about 2,026 μg·hr/L, FIG. 5",about 3%
same,"Risk of major bleeding compared to Group a, Group b","[3]; mild renal impairment, single 20 mg rivaroxaban and 360 mg verapamil",2.5 times higher
same,"Risk of major bleeding compared to Group a, Group c",[3]; three subjects of Group b with the highest AUCinf,at least 5 times higher
same,Association with increased serious bleeding adverse events,[4]; concomitant administration of rivaroxaban and erythromycin,not associated with increased serious bleeding adverse events
same,Share of the reported rivaroxaban serious bleeding adverse events,"[4]; patients concomitantly administered verapamil and rivaroxaban, who account for only 22% of the total population receiving rivaroxaban",30%
same,Factor Xa inhibition on concomitant verapamil,Factor Xa; [10],increased Factor Xa inhibition
same,Factor Xa inhibition on concomitant verapamil,Factor Xa; [11],increased Factor Xa inhibition
same,Rivaroxaban plasma concentrations on concomitant verapamil,[5],higher rivaroxaban plasma concentrations
same,Risk of major bleeding compared to subjects not concomitantly administered verapamil,"[6]; concomitant oral verapamil, aspirin and rivaroxaban",significantly higher risk of major bleeding
same,Risk of major bleeding,"[6]; single 1.75 mg rivaroxaban and verapamil (e.g., 360 mg), Example 5, from about 1.5-2.0%",not more than 4.5%
same,Risk of major bleeding,"[6]; single 2.5 mg rivaroxaban, verapamil (e.g., 360 mg) and aspirin (100 mg), about 3%",not more than 4.5%
same,Geometric mean AUC of rivaroxaban for 2.5 mg dose,"[7]; 2.5 mg rivaroxaban, no verapamil",165.4 μg·h/L to 551.9
same,Geometric mean AUC of rivaroxaban for 5 mg dose,"[7]; 5 mg rivaroxaban, no verapamil",1064.25 µg·h/L
same,"Average AUC (average geometric mean), Group a","[7]; fed subjects across studies 10989 and 11938, single 20 mg rivaroxaban, FIG. 5","approximately 2,026 μg·hr/L"
same,Upper bound of the 90% confidence interval of the steady state AUC (Label A),"[7]; patients administered 20 mg of rivaroxaban, FIG. 4","about 3,792 μg·hr/L"
same,Upper boundary of the 90% confidence interval of the steady state AUC (Label C),"[7]; single 20 mg dose of rivaroxaban after a meal (study 10989), FIG. 4","about 2,448 μg·hr/L"
same,Dose eliminated in urine as unprocessed active drug,[8],~36%
same,Dose eliminated through active renal secretion,[8],30%
same,Dose eliminated through glomerular filtration,[8],6%
same,Dose subject to metabolic degradation via the liver's oxidative and hydrolytic pathways,[8],two-thirds
same,Share of rivaroxaban clearance accounted for by CYP3A4,[8],approximately 18%
COc1ccc(NC(=O)c2ccc(C(=N)N(C)C)cc2)c(C(=O)Nc2ccc(Cl)cn2)c1 [betrixaban],"Exposure on concomitant use of P-gp inhibitors, such as verapamil",[9]; BEVYXXA label,increased exposure to betrixaban
CN1CCc2nc(C(=O)N[C@@H]3C[C@@H](C(=O)N(C)C)CC[C@@H]3NC(=O)C(=O)Nc3ccc(Cl)cn3)sc2C1 [edoxaban],Bleeding or other adverse events on co-administration with verapamil,[9]; Mendell et al.,did not lead to any increased bleeding or other adverse events
CC[C@H]1OC(=O)[C@H](C)[C@@H](O[C@H]2C[C@@](C)(OC)[C@@H](O)[C@H](C)O2)[C@H](C)[C@@H](O[C@@H]2O[C@H](C)C[C@H](N(C)C)[C@H]2O)[C@](C)(O)C[C@@H](C)C(=O)[C@H](C)[C@@H](O)[C@]1(C)O [erythromycin],Inhibition of P-gp-mediated efflux of rivaroxaban across cell monolayers,P-gp,did not inhibit
same,Eliminated renally (unchanged),[8],2-15%
